Measurements: the supplement of paper PMC4862054

Tests used:
Experiment in all cases: normalised response (% of control), CellTiter-Glo; higher = more viable cells (100 = DMSO, 0 = benzethonium chloride kill control)
Conditions in all cases: incubation time: 72 h
[1] = system: MDA-MB-453
How it was run: (§1)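 Breast cancer cell lines (20 µl suspension) were seeded into 384-well plates holding compound at 5 concentrations in 10-fold steps over a compound-specific 10,000-fold range, then incubated 72 h. CellTox Green fluorescence (485/520 nm) was read first, then CellTiter-Glo luminescence after 10 min at room temperature. Each plate was normalised to 0.1 % DMSO (100) and a positive kill control (0). Each value is the normalised signal at a single concentration of the series.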

[2] = system: CAL-120
How it was run: as §1

[3] = system: HDQ-P1
How it was run: as §1

[4] = system: BT-549
How it was run: as §1

[5] = system: SK-BR-3
How it was run: as §1

[6] = system: MCF-10A
How it was run: as §1

[7] = system: DU-4475
How it was run: as §1

[8] = system: HCC1937
How it was run: as §1

[9] = system: MFM-223
How it was run: as §1

[10] = system: CAL-85-1
How it was run: as §1

[11] = system: HCC1599
How it was run: as §1

[12] = system: BT-474
How it was run: as §1

[13] = system: MDA-MB-231
How it was run: as §1

[14] = system: MDA-MB-468
How it was run: as §1

[15] = system: HCC1143
How it was run: as §1

[16] = system: Hs578T
How it was run: as §1

[17] = system: MDA-MB-436
How it was run: as §1

[18] = system: CAL-51
How it was run: as §1

[19] = system: CAL-148
How it was run: as §1

Row | Compound | normalised response [1] [%] | normalised response [2] [%] | normalised response [3] [%] | normalised response [4] [%] | normalised response [5] [%] | normalised response [6] [%] | normalised response [7] [%] | normalised response [8] [%] | normalised response [9] [%] | normalised response [10] [%] | normalised response [11] [%] | normalised response [12] [%] | normalised response [13] [%] | normalised response [14] [%] | normalised response [15] [%] | normalised response [16] [%] | normalised response [17] [%] | normalised response [18] [%] | normalised response [19] [%]
1 | CC1=C2C[C@H]3[C@@H](CC=C4C[C@@H](O)CC[C@@]43C)[C@@H]2CC[C@]12O[C@@H]1C[C@H](C)CN[C@H]1[C@H]2C [Cyclopamine] (10 nM) | 109 | 102 | 105 | 95.6 | 120 | 114 | 109 | 104 | 113 | 98 | 116 | 104 | 105 | 110 | 105 | 105 | 105 | 110 | 117
2 | CC(=O)N(O)CCCCCNC(=O)CCC(=O)N(O)CCCCCNC(=O)CCC(=O)N(O)CCCCCN [Deferoxamine] (1 nM) | 94.8 | 106 | 105 | 104 | 94.8 | 99.2 | 95.6 | 93.7 | 94.7 | 93.2 | 120 | 94.6 | 91.8 | 91 | 95.1 | 100 | 101 | 108 | 91.9
3 | CC(=O)N(O)CCCCCNC(=O)CCC(=O)N(O)CCCCCNC(=O)CCC(=O)N(O)CCCCCN [Deferoxamine] (10 nM) | 90.2 | 97.4 | 105 | 106 | 99 | 91.4 | 92.3 | 101 | 96.9 | 93 | 110 | 94.5 | 91.5 | 98.2 | 102 | 97 | 96.3 | 87.7 | 88.3
4 | CC(=O)O[C@@]12CO[C@@H]1C[C@H](O)[C@@]1(C)C(=O)[C@H](O)C3=C(C)[C@@H](OC(=O)[C@H](O)[C@@H](NC(=O)OC(C)(C)C)c4ccccc4)C[C@@](O)([C@@H](OC(=O)c4ccccc4)[C@H]21)C3(C)C [Docetaxel] (1 nM) | 104 | 94.6 | 90 | 60.5 | 68.5 | 73.2 | 90.6 | 83.5 | 91.3 | 79.9 | 97.4 | 84.2 | 87.8 | 50.2 | 71.5 | 76.6 | 81.5 | 115 | 84.6
5 | C[C@]12CC[C@@H]3c4ccc(OC(=O)N(CCCl)CCCl)cc4CC[C@H]3[C@@H]1CC[C@@H]2O [Estramustine] (1 nM) | 94.6 | 97.6 | 100 | 97 | 90 | 86.5 | 89.3 | 93.1 | 88 | 95 | 109 | 95.3 | 94.7 | 88.2 | 96.4 | 95.5 | 106 | 118 | 80.3
6 | C[C@]12CC[C@@H]3c4ccc(OC(=O)N(CCCl)CCCl)cc4CC[C@H]3[C@@H]1CC[C@@H]2O [Estramustine] (10 nM) | 88.8 | 103 | 104 | 98.6 | 94.9 | 91.1 | 91.3 | 96 | 87.7 | 91.2 | 103 | 97 | 95.1 | 97.6 | 98.5 | 97 | 93.3 | 90.1 | 84.1
7 | C[C@]1(O)C[C@@H](c2nc(-c3ccc4ccc(-c5ccccc5)nc4c3)c3c(N)nccn32)C1 [Linsitinib] (1 nM) | 90.9 | 97.7 | 105 | 92.6 | 91.5 | 89.5 | 98 | 91.5 | 87.5 | 92.8 | 106 | 98.2 | 95.3 | 93.9 | 91.7 | 93.2 | 96.4 | 109 | 98
8 | C[C@]1(O)C[C@@H](c2nc(-c3ccc4ccc(-c5ccccc5)nc4c3)c3c(N)nccn32)C1 [Linsitinib] (10 nM) | 99.3 | 102 | 99 | 94.4 | 76.1 | 88.9 | 94.9 | 101 | 92.8 | 95 | 78.5 | 93.7 | 94.8 | 90.8 | 96.1 | 96.1 | 89.2 | 92.4 | 85.6
9 | Nc1nc2[nH]cnc2c(=S)[nH]1 [Thioguanine] (10 nM) | 87.4 | 100 | 94.6 | – | – | 98.7 | 98.5 | 96.9 | 97.2 | 99.4 | 112 | 93.8 | 98.2 | 99.5 | 101 | 102 | 98.8 | 85.1 | 105
